Assay results published in ChEMBL document CHEMBL3507680, “University of Dundee, Gates Library screen for HepG2 cell viability”.

Experiment: Human HepG2 cell viability assay in 384 well format
Assay type: toxicity, cell-based
Design: dose 125 nL, time 70.5 hour; cytotoxicity at 70.5 h: concentration not given beside the values
Conditions: HepG2 cells, read-out: Inhibition

| SMILES | cytotoxicity at 70.5 h [%] |
| --- | --- |
| COc1c(NC(=O)C(C)CCOc2ccccc2)c(C)nn1C (stereo unspecified) | 7.42 |
| c1cncc(OCc2noc3c2CN(Cc2ccoc2)CC3)c1 | -15.9 |
| CCCNC(=O)CN1CCC(NCc2csc(C(C)C)n2)CC1 | -11.5 |
| COC(=O)c1cc(OCC2CCC2)cc(C(=O)N[C@H]2CC[C@H](O)CC2)c1 | 15.3 |
| Cc1ccc(S(=O)(=O)N2C[C@@H]3C[C@@H](NC(=O)C(C)(C)C)[C@@H]3C2)cc1 | -16.5 |
| COC(=O)C(CNC(=O)Nc1cn[nH]c1)Cc1cccc(C)c1 (stereo unspecified) | -0.383 |
| Cc1ccccc1OCCC(=O)N1CCc2nc(C)n(C)c(=O)c2CC1 | -8.53 |
| Cc1ccccc1S(=O)(=O)N(C)[C@@H]1CC[C@@H](n2ccnc2C)[C@@H]1O | 53.4 |
| CNC(=O)[C@H]1C[C@@H]2CN(S(=O)(=O)c3ccccc3)C[C@@H]2N1C | -8.21 |
| CCc1nc(CN2CCCN(C(=O)c3cncnc3C)CC2)cs1 | -7.12 |
| Cc1ccc(CN2CC(C(=O)NCC3CC3)C3(CCOCC3)C2)s1 (stereo unspecified) | -7.98 |
| c1cnc(N2CCOCC3(CN(Cc4cc[nH]n4)CCO3)C2)nc1 (stereo unspecified) | 7.31 |
| COCc1cccc(NCc2cccnc2)c1 | -10.4 |
| CC(C)N1CCCC(C(=O)N2CCN(c3nsc4ccccc34)CC2)C1 (stereo unspecified) | 1.52 |
| COCC(C)N1CCN(CCc2ccc3c(c2)CCO3)CC1 (stereo unspecified) | 21.8 |
| OC1(CN2CCCC2)COCCN(c2ncnc3[nH]cnc23)C1 (stereo unspecified) | -0.684 |
| COC(=O)CN(C)C1CCc2ccccc21 (stereo unspecified) | -4.82 |
| O=C([C@H]1C[C@@H]2CN(c3ncc(F)cn3)C[C@H]1O2)N1CCCC1 | -9.42 |
| Cc1cc2ccccc2n1CCC(=O)N1CCCCC1CCO (stereo unspecified) | -6.95 |
| CC(C)CSCCCNC(=O)C1CCOCC1 | -5.98 |
| CCc1nc2ccccc2c(=O)n1CC1(O)CCN(CC(=O)OC)CC1 | -10.9 |
| CN1CCC(N(C)C[C@H]2CC[C@@H](Cc3cccc(CO)c3)O2)CC1 | 5.66 |
| Cc1nc(C)n(CC2CN(Cc3nc4ccccc4s3)CCO2)n1 (stereo unspecified) | 18.9 |

| SMILES | cytotoxicity at 70.5 h [%] |
| --- | --- |
| CC(=O)Nn1c(C)cc(CN2CCC(C(=O)N3CCCC3)CC2)c1C | -2.42 |
| O=C(NCc1ccccn1)NCc1ccc(Cl)s1 | 20.5 |
| COCC(c1cccc(C(F)(F)F)c1)N(C)C(=O)c1ccoc1 (stereo unspecified) | -3.47 |
| Cc1nnc([C@@H]2CC[C@@H]3[C@@H](CCN3Cc3ccccn3)O2)o1 | 10.5 |
| Cn1cc(NC(=O)c2ccccn2)cc(Br)c1=O | -4.48 |
| O=C(Cn1c(=O)n(Cc2ccco2)c2ncccc21)NC1CCCC1 | -7.12 |
| CCSc1ncc(CN2CCN(c3nc(C)cnc3C)CC2)cn1 | 23.3 |
| O=C(c1csc(-c2nnc[nH]2)n1)N1CCCCC1Cn1cccn1 (stereo unspecified) | 1.45 |
| CCCN1CCCC1Cn1nc(C)cc1C (stereo unspecified) | -3.07 |
| CCOCC1CN(C(=O)Cc2ccsc2)Cc2ccnn2C1 (stereo unspecified) | -6.83 |
| Cc1cnn(C2CN(c3ncnc4[nH]ccc34)C2)c1 | -3.84 |
| CN(C)CCN1CCOCC2(CCCN(C(=O)c3ccccc3)C2)C1 (stereo unspecified) | -2.82 |
| O=C(Cc1ccc2c(c1)CCCC2)N[C@@H]1CC[C@@H](n2ccnc2)[C@@H]1O | -3.88 |
| CN1CCN(C(=O)c2cc(-c3cccs3)cs2)CC1 | -10.5 |
| CCCC(=O)N1CCC(c2ncc3c(n2)CCNC3)CC1 | -5.64 |
| CCOc1ccc(CN2C(=O)CC(CC)(CC)C2=O)nc1 | 0.923 |
| COc1ccc(-c2nc3c([nH]2)CCNC3C(=O)O)c2ccc(C)nc12 (stereo unspecified) | 12.4 |
| CC(NC(=O)NCCCN(C(C)C)S(C)(=O)=O)c1ccncc1 (stereo unspecified) | -2.51 |
| Cc1oncc1C(=O)N1CC[C@H]2[C@H](CO[C@@H]2CNS(C)(=O)=O)C1 | -5.2 |
| Cc1cc(F)c(S(=O)(=O)Nc2ccn(CCCC#N)n2)cc1F | -16 |
| COCCN(Cc1cccnc1)S(=O)(=O)c1cccc(F)c1F | 5.02 |
| CN(C)CC(=O)N1C[C@@H]2CC[C@H](Oc3ccccc3)[C@@H]2C1 | -0.0251 |
| Cn1ncc2c1C(COCC1CC1)N(Cc1ccoc1)CC2 (stereo unspecified) | -19.6 |

| SMILES | cytotoxicity at 70.5 h [%] |
| --- | --- |
| CC(=O)N1CCCC(Cc2cnc(-n3ccnc3)cn2)C1 (stereo unspecified) | -5.34 |
| COc1cccc(-c2cccc(N3CCC(N[C@@H]4CCOC4)CC3)c2)c1 | 2.44 |
| O=C(CCSc1ccccc1F)NS(=O)(=O)c1ccc2c(c1)OCCO2 | -4.85 |
| CNc1nc(CNC(=O)Nc2ccccc2-c2noc(C)n2)cs1 | 7.32 |
| Cc1ccc2c(c1)C1(CCNCC1)CN2C(=O)CN(C)C | 4.93 |
| Cc1nn(C)c2ncc(NC(=O)N3CCNC(=O)C3)cc12 | -6.74 |
| CC(c1ccc(F)cc1)N1CCN(Cc2ccc(C#N)cc2)CC1 (stereo unspecified) | -11.6 |
| CCOC(=O)N1CCC(OC)c2ccccc2N(CC(=O)NC)C(=O)C1 (stereo unspecified) | -3.27 |
| CCc1csc(C2CCCN(C(=O)c3ccc4c(c3)OCO4)C2)n1 (stereo unspecified) | 13.2 |
| CN(C)Cc1ccc(C(=O)N2CCCC(n3cccn3)C2)cc1 (stereo unspecified) | 8.2 |
| Cc1ccc(NC2CCCN(CCCc3ccccc3)C2)nn1 (stereo unspecified) | 30.2 |
| CC(=O)N1CCc2[nH]nc(C(=O)N3CC=CC3)c2C1 | 34.9 |
| O=C(NCC1CC1)[C@@H]1CC[C@@H]2[C@@H](CCN2Cc2ccco2)O1 | 1.26 |
| Fc1ccc(C2(CNCC(F)F)CCOC2)cc1 (stereo unspecified) | -2.85 |
| O=C(c1cccnc1)N1CCC2(CC1)COC(COc1ccccn1)C2 (stereo unspecified) | -11.7 |
| O=C(NCc1cc[nH]n1)NC1CCCN(c2ncccn2)C1 (stereo unspecified) | -6.39 |
| O=C1NC2(CCCN(C(=O)CCn3cncn3)C2)Oc2ccccc21 (stereo unspecified) | -4.04 |
| CC[C@H]1N(Cc2ccco2)CCC[C@]12CCC(=O)N2C | -15.5 |
| O=C(CCc1ccc2c(c1)OCO2)Nc1cccnc1-n1cncn1 | -2.15 |
| Cn1cc(S(=O)(=O)N2CCC(OCCCc3ccccc3)C2)cn1 (stereo unspecified) | 21.6 |
| Cc1ccc(CN2CC[C@H]3C(=O)N(c4cccnc4)CCO[C@H]3C2)o1 | -5.97 |
| COc1ccc2c(c1)CCCN2C(=O)CN1CCOC(CN(C)C)C1 (stereo unspecified) | -4.78 |
| Cc1ccc(N2CCc3sc(C(=O)NCCN4CCCC4)cc32)nn1 | -0.377 |

| SMILES | cytotoxicity at 70.5 h [%] |
| --- | --- |
| COc1ccccc1OCCNCc1c(C(C)C)nn(C)c1N(C)C | 34.1 |
| CCc1nc(C)sc1CN(Cc1ccncc1)C1CCN(C)CC1 | -6.03 |
| CCC(=O)N1CCc2[nH]cnc2C12CCN(CC1CCOC1)CC2 (stereo unspecified) | -9.55 |
| CCc1ocnc1C(=O)N1CCC(C2CCN(c3ncccn3)CC2)C1 (stereo unspecified) | 1.07 |
| O=C(c1ccc(CN2CCCC2)cc1)N1CCCC(n2cccn2)C1 (stereo unspecified) | -5.06 |
| C[S+]([O-])CCNC(=O)N1CCSC(C)(C)C1 (stereo unspecified) | -1.1 |
| O=C(CCc1cc(Cl)no1)N1CCCCC1CCn1ccnc1 (stereo unspecified) | -5.27 |
| O=C(c1cscn1)N1CCC2(CCN(S(=O)(=O)c3ccccc3)C2)C1 (stereo unspecified) | -17.7 |
| COC(=O)N1CCN(Cc2ccccc2C(C)(C)C#N)CC1 | -5.92 |
| CS(=O)(=O)N1CCN(c2ccnc(N3CCCCC3)n2)CC1 | -6.15 |
| CN(C)CCNC(=O)c1ccn(-c2ccc3ccccn23)n1 | -6.93 |
| CCc1nnc(Nc2cc(C)nc(C3CCN(c4cnccn4)C3)n2)s1 (stereo unspecified) | -15.3 |
| CCNc1ncc(C(=O)NCc2cccc(OC(F)(F)F)c2)cn1 | -16.5 |
| CN(C)c1ccc(C(=O)NCc2ccc(N3CCOCC3)cc2)cn1 | 14.5 |
| O=C(NCc1cc[nH]n1)N1CCN(c2ccccc2Cl)CC1 | 6.1 |
| O=C1CCN(C(=O)C2(c3ccc(F)cc3)CCCCC2)CCN1 | -8.46 |
| CC(C)(C)Oc1ccc(NCC(=O)NCc2ccco2)cc1 | -18.5 |
| COCCC(=O)N1CCN(C)c2ncccc2C1 | -6.73 |
| COc1ccccc1NC(=O)NCCCn1nc2ccccn2c1=O | -3.26 |
| FC(F)(F)c1cccc(N2CCC(NCc3cccnc3)CC2)c1 | 26.9 |
| CC(CN(C)C)Nc1nc(O)cc(Cc2ccccc2F)n1 (stereo unspecified) | 4.28 |
| CNC(=O)c1cc2c(nc1NCC1CC1)CCN(S(=O)(=O)C1CC1)CC2 | 2.84 |
| O=C(NCCc1ccccn1)[C@@H]1CC[C@@H]2[C@@H](CCN2Cc2ccoc2)O1 | 0.0992 |

| SMILES | cytotoxicity at 70.5 h [%] |
| --- | --- |
| O=C1CO[C@@H]2CNC[C@H]2N1CC1CC1 | 2.73 |
| O=C(Cc1csc(N2CCNC2=O)n1)NC1(c2ccccc2)CCC1 | -8.91 |
| O=C(NC[C@H]1OC[C@@H](NC2CCC(F)(F)CC2)[C@@H]1O)Nc1ccccc1 | 0.362 |
| CCC1=N[C@@]2(CC[C@@H]3CN(Cc4ccccc4C)C[C@@H]32)C(=O)N1C | 0.166 |
| O=C(NCc1ccccc1)N1CCC2(CC(=O)N(c3ccccc3)C2)C1 (stereo unspecified) | -5.57 |
| COc1cccc(CN(C)Cc2cc(C#N)ccc2F)c1OC | -9.77 |
| CCc1noc(CC)c1CC(=O)N1CCN(C(=O)C2CCCC2)CC1 | -9.43 |
| Cn1ccc2c(-c3ccc(NCCO)nn3)ccnc21 | -9.8 |
| COc1cc2c(cc1CN1CCn3c(CO)nnc3C1)CCC2 | 8.8 |
| O=C(O)CC(NC(=O)c1ccccc1OC(F)F)c1cccs1 (stereo unspecified) | 2.5 |
| Cc1ccc(C2CSCCN2C(=O)c2ccccn2)cc1 (stereo unspecified) | -13.2 |
| Cc1cc(C)n2cc(CN3CCCC3Cn3nc(C)nc3C)nc2n1 (stereo unspecified) | -6.16 |
| O=C(CSC1=NS(=O)(=O)c2cc(F)ccc2N1)c1ccccc1 | -3.16 |
| O=C(c1ccccn1)N1CCCC(c2ncncc2-c2ccncc2)C1 (stereo unspecified) | -9.39 |
| COCCN1CCC2(C1)c1ccccc1S(=O)(=O)N2C (stereo unspecified) | -10.1 |
| COc1cc(F)c(S(=O)(=O)N2CCN(C)Cc3ccccc32)cc1OC | -10.1 |
| CCc1nc2n(n1)CCCC2Nc1nc(C2CC2)ns1 (stereo unspecified) | -8.97 |
| Cc1cccc(C2CC(=O)Nc3c2c(=O)[nH]n3C(C)C)c1 (stereo unspecified) | -11.1 |
| c1cnc(N2CCCC3(CCN(Cc4ccncc4)C3)C2)nc1 (stereo unspecified) | -13.2 |
